According to patent US6737383B1, “Herbicidal oxadiazolidines” (priority 1999, dated 2004):

What was measured:
winter wheat [1] = assay: Test E winter wheat; format: in vivo, Triticum aestivum; conditions: Postemergence
Summary of the method: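 Greenhouse-grown plants are treated (postemergence: 1- to 4-leaf stage, sandy loam/potting mix 60:40), then evaluated visually versus untreated controls some 21 to 28 days later.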

Spanishneedles = assay: Test D Spanishneedles; format: in vivo, Bidens bipinnata; conditions: Preemergence, 0 to 100 scale
Summary of the method: (§1)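 Visual injury ratings, 0 = no injury to 100 = complete control, taken 14 to 21 days after treatment. Test chemicals were in a surfactant-containing non-phytotoxic solvent; preemergence treatments went onto the sandy loam surface of seeded greenhouse pots within one day of sowing.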

crabgrass = assay: Test B pre/postemergence crabgrass; format: in vivo, Digitaria sanguinalis
Summary of the method: (§2)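 Response is a visual 0-to-10 score relative to untreated plants, where 0 means no effect and 10 means complete control, taken twelve to sixteen days after application. Treatments went onto soil at planting and onto foliage of 1- to 4-leaf plants, using a surfactant-containing non-phytotoxic solvent.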

sandbur = assay: Test D sandbur; format: in vivo, Cenchrus echinatus; conditions: Preemergence, 0 to 100 scale
Summary of the method: as §1

Italian ryegrass = assay: Test E Italian ryegrass; format: in vivo, Lolium multiflorum; conditions: Preemergence
wheat = assay: Test B pre/postemergence wheat; format: in vivo, Triticum aestivum; conditions: for Wheat plant response rating (0 to 10 scale): 0 is no effect; for Plant response rating, Wheat: Rate 250 g/ha
Summary of the method: as §2

duck salad = assay: Test B flood test duck salad; format: in vivo, Heteranthera limosa
Summary of the method: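 Each value is a visual injury score relative to controls, with 10 meaning complete control and 0 no effect. Evaluation took place twelve to sixteen days after the 2-leaf-stage plants were treated and kept in the greenhouse.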

wild oat = assay: Test E wild oat; format: in vivo, Avena fatua; conditions: Preemergence
giant foxtail = assay: Test B pre/postemergence giant foxtail; format: in vivo, Setaria faberii
Summary of the method: as §2

common pursiane = assay: Test D common purslane; format: in vivo, Portulaca oleracea; conditions: Preemergence, 0 to 100 scale
Summary of the method: as §1

large crabgrass = assay: Test D large crabgrass; format: in vivo, Digitaria sanguinalis; conditions: Preemergence, 0 to 100 scale
Summary of the method: as §1

blackgrass = assay: Test E blackgrass; format: in vivo, Alopecurus myosuroides; conditions: Preemergence
winter wheat [2] = assay: Test E winter wheat; format: in vivo, Triticum aestivum; conditions: Preemergence
winter barley = assay: Test E winter barley; format: in vivo, Hordeum vulgare; conditions: Preemergence
green foxtail = assay: Test E green foxtail; format: in vivo, Setaria viridis; conditions: Preemergence
[3] = Rate 250 g/ha, 0 to 100 scale (0 no effect, 100 complete control)
[4] = Postemergence, Rate 125 g/ha, scale of 0 to 10 where 0 is no effect and 10 is complete control
[5] = Postemergence, Rate 250 g/ha, scale 0 to 10, 0 no effect, 10 complete control
[6] = Preemergence, Rate 62 g/ha, scale 0 to 10 (0 no effect, 10 complete control)
[7] = Preemergence, Rate 125 g/ha, scale 0 to 10 (0 no effect, 10 complete control)
[8] = Preemergence, Rate 250 g/ha, scale of 0 to 10 where 0 is no effect and 10 is complete control
[9] = Preemergence, Rate 500 g/ha, scale 0 to 10 (0 no effect, 10 complete control)
[10] = Rate 62 g/ha, Postemergence, scale of 0 to 10 where 0 is no effect and 10 is complete control
[11] = Rate 500 g/ha, Postemergence, scale 0 to 10, 0 no effect, 10 complete control
[12] = Rate 62 g/ha, 0 to 100 scale, 0 no effect, 100 complete control
[13] = Rate 125 g/ha, 0 to 100 scale (0 no effect, 100 complete control)
[14] = Preemergence, Rate 125 g/ha, 10 is complete control
[15] = Preemergence, scale of 0 to 10 where 0 is no effect and 10 is complete control
[16] = Postemergence, scale 0 to 10, 0 is no effect, 10 is complete control
[17] = Rate 16 g/ha, 0 no injury, 100 complete control
[18] = Rate 32 g/ha, 0 no injury, 100 complete control
[19] = Rate 64 g/ha, 0 no injury, 100 complete control
[20] = Rate 125 g/ha, 0 no injury, 100 complete control

CC(C)N(C(=O)n1oc(=O)n(C2CCCCC2)c1=O)c1ccc(F)cc1 [Compound 110]
20: Plant response rating, I. Ryegrass (Italian ryegrass; Rate 250 g/ha, 0 to 100 scale) | Plant response rating, Blackgrass (blackgrass; [12])
8: Crabgrass plant response rating (crabgrass; [11]) | Giant foxtail plant response rating (giant foxtail; [11])
100: Plant response rating, Large crabgrass (large crabgrass; Rate 250 g/ha) | Plant response rating, Large crabgrass (large crabgrass; Rate 500 g/ha)
9: Plant response rating, Crabgrass (crabgrass; [8])
98: Plant response rating, Sandbur (sandbur; Rate 250 g/ha) | Plant response rating, Sandbur (sandbur; Rate 500 g/ha)
50: Plant response rating, Blackgrass (blackgrass; [13])
30: Plant response rating, Green foxtail (green foxtail; [12])
85: Plant response rating, Green foxtail (green foxtail; Rate 250 g/ha, 0 to 100 scale)
3: Crabgrass plant response rating (crabgrass; [4]) | Crabgrass plant response rating (crabgrass; [5]) | Crabgrass plant response rating (crabgrass; [6]) | Plant response rating, Crabgrass (crabgrass; [7]) | Wheat plant response rating (wheat; [9])
0: Plant response rating, Wheat (winter) (winter wheat [1]; Rate 62 g/ha, 0 to 100 scale) | Plant response rating, Wheat (winter) (winter wheat [1]; Rate 125 g/ha, 0 to 100 scale) | Plant response rating, Wheat (winter) (winter wheat [1]; [3]) | Plant response rating, Spanishneedles (Spanishneedles; Rate 500 g/ha) | Plant response rating, I. Ryegrass (Italian ryegrass; [12]) | Plant response rating, I. Ryegrass (Italian ryegrass; [13]) | Wheat plant response rating (wheat; [4]) | Wheat plant response rating (wheat; [6]) | Wheat plant response rating (0 to 10 scale) (wheat; [14]) | Plant response rating, Wheat (wheat; [15]) | Wheat plant response rating (wheat; [10]) | Plant response rating, Wheat (wheat; [16]) | Ducksalad plant response rating (duck salad; Postemergence (flood test species), Rate 125 g/ha, scale of 0 to 10 where 0 is no effect and 10 is complete control) | Ducksalad plant response rating (duck salad; Rate 62 g/ha, Postemergence section, flood test species, scale of 0 to 10 where 0 is no effect and 10 is complete control) | Ducksalad plant response rating (duck salad; Rate 500 g/ha, listed under Postemergence (flood test species), scale 0 to 10, 0 no effect, 10 complete control) | Ducksalad plant response rating (duck salad; flood test, listed under Postemergence, Rate 250 g/ha, scale 0 to 10, 0 no effect, 10 complete control) | Plant response rating, Wild oat (wild oat; [12]) | Plant response rating, Wild oat (wild oat; [13]) | Giant foxtail plant response rating (giant foxtail; [10]) | Plant response rating, C. purslane (common pursiane; Rate 250 g/ha) | Plant response rating, C. purslane (common pursiane; Rate 500 g/ha) | Plant response rating, Wheat (winter) (winter wheat [2]; [12]) | Plant response rating, Wheat (winter) (winter wheat [2]; [13]) | Plant response rating, Wheat (winter) (winter wheat [2]; Rate 250 g/ha, 0 to 100 scale) | Plant response rating, Barley (winter) (winter barley; [12]) | Plant response rating, Barley (winter) (winter barley; [13])
60: Plant response rating, Blackgrass (blackgrass; Rate 250 g/ha, 0 to 100 scale) | Plant response rating, Green foxtail (green foxtail; [13])
1: Wheat plant response rating (wheat; [11])
2: Crabgrass plant response rating (crabgrass; [10]) | Giant foxtail plant response rating (giant foxtail; [4])
10: Crabgrass plant response rating (crabgrass; [9]) | Giant foxtail plant response rating (giant foxtail; [6]) | Plant response rating, Giant foxtail (giant foxtail; [7]) | Plant response rating, Giant foxtail (giant foxtail; [8]) | Giant foxtail plant response rating (giant foxtail; [9])
5: Giant foxtail plant response rating (giant foxtail; [5]) | Plant response rating, Barley (winter) (winter barley; Rate 250 g/ha, 0 to 100 scale)

CCCn1c(=O)on(C(=O)N(c2ccc(Cl)cc2)C(C)C)c1=O [Compound 119]
100: Plant response rating, Sandbur (sandbur; Rate 250 g/ha) | Plant response rating, Large crabgrass (large crabgrass; [20]) | Plant response rating, Large crabgrass (large crabgrass; Rate 250 g/ha)
35: Plant response rating, I. Ryegrass (Italian ryegrass; [13])
8: Crabgrass plant response rating (crabgrass; [5]) | Plant response rating, Crabgrass (crabgrass; [8]) | Crabgrass plant response rating (crabgrass; [11]) | Giant foxtail plant response rating (giant foxtail; [4]) | Giant foxtail plant response rating (giant foxtail; [5]) | Giant foxtail plant response rating (giant foxtail; [10]) | Giant foxtail plant response rating (giant foxtail; [11])
60: Plant response rating, I. Ryegrass (Italian ryegrass; Rate 250 g/ha, 0 to 100 scale) | Plant response rating, Green foxtail (green foxtail; Rate 250 g/ha, 0 to 100 scale)
98: Sandbur plant response rating (sandbur; [20]) | Plant response rating, Large crabgrass (large crabgrass; [19])
3: Crabgrass plant response rating (crabgrass; [4]) | Plant response rating, Wheat (wheat; [15]) | Plant response rating, Wheat (wheat; [16]) | Wheat plant response rating (wheat; [11])
7: Crabgrass plant response rating (crabgrass; [6])
9: Giant foxtail plant response rating (giant foxtail; [6])
50: Plant response rating, Blackgrass (blackgrass; Rate 250 g/ha, 0 to 100 scale) | Plant response rating, Green foxtail (green foxtail; [13])
2: Crabgrass plant response rating (crabgrass; [10])
30: Plant response rating, Wheat (winter) (winter wheat [2]; Rate 250 g/ha, 0 to 100 scale)
20: Plant response rating, Wheat (winter) (winter wheat [1]; [3]) | Plant response rating, Wild oat (wild oat; [12]) | Plant response rating, Blackgrass (blackgrass; [12]) | Plant response rating, Wheat (winter) (winter wheat [2]; [13])
85: Plant response rating, Large crabgrass (large crabgrass; [17])
0: Plant response rating, Spanishneedles (Spanishneedles; [17]) | Plant response rating, Spanishneedles (Spanishneedles; [18]) | Spanishneedles plant response rating (Spanishneedles; [19]) | Plant response rating, Sandbur (sandbur; [17]) | Plant response rating, Sandbur (sandbur; [18]) | Wheat plant response rating (wheat; [4]) | Wheat plant response rating (wheat; [6]) | Wheat plant response rating (0 to 10 scale) (wheat; [14]) | Wheat plant response rating (wheat; [10]) | Ducksalad plant response rating (duck salad; Rate 250 g/ha, headed Pre-emergence (flood test species), scale 0 to 10 (0 no effect, 10 complete control)) | Plant response rating, Ducksalad (duck salad; Rate 500 g/ha, headed Pre-emergence (flood test species), scale 0 to 10 (0 no effect, 10 complete control)) | Ducksalad plant response rating (duck salad; Rate 1000 g/ha, Pre-emergence (as headed), scale 0 to 10) | Ducksalad plant response rating (duck salad; Rate 2000 g/ha, Pre-emergence (as headed), scale 0 to 10) | Plant response rating, C. purslane (common pursiane; [17]) | Plant response rating, C. purslane (common pursiane; [18]) | Plant response rating, C. purslane (common pursiane; [19]) | Plant response rating, C. purslane (common pursiane; [20]) | Plant response rating, C. purslane (common pursiane; Rate 250 g/ha) | Plant response rating, Wheat (winter) (winter wheat [2]; [12])
90: Plant response rating, Large crabgrass (large crabgrass; [18])
65: Sandbur plant response rating (sandbur; [19])
5: Wheat plant response rating (wheat; [9]) | Plant response rating, Barley (winter) (winter barley; [12])
10: Plant response rating, Wheat (winter) (winter wheat [1]; Rate 62 g/ha, 0 to 100 scale) | Plant response rating, Wheat (winter) (winter wheat [1]; Rate 125 g/ha, 0 to 100 scale) | Spanishneedles plant response rating (Spanishneedles; [20]) | Crabgrass plant response rating (crabgrass; [9]) | Plant response rating, I. Ryegrass (Italian ryegrass; [12]) | Plant response rating, Wild oat (wild oat; [13]) | Plant response rating, Giant foxtail (giant foxtail; [7]) | Plant response rating, Giant foxtail (giant foxtail; [8]) | Giant foxtail plant response rating (giant foxtail; [9]) | Plant response rating, Blackgrass (blackgrass; [13]) | Plant response rating, Barley (winter) (winter barley; [13]) | Plant response rating, Barley (winter) (winter barley; Rate 250 g/ha, 0 to 100 scale) | Plant response rating, Green foxtail (green foxtail; [12])
